Data as given in ChEMBL document CHEMBL1144580, “Screening of alpha-helical peptide ligands controlling a calcineurin-phosphatase activity” (Bioorg Med Chem Lett, 2007).
Active and inactive are the calls of the source. The calls are words filed in the database; no cut-off is given here.

Legend:
Homo sapiens [1] = organism: Homo sapiens; test: Inhibition of calcineurin phosphatase activity in absence of calmodulin at 1 uM
Homo sapiens [2] = organism: Homo sapiens; test: Inhibition of calcineurin phosphatase activity in presence of calmodulin at 1 uM

Row | Activity (Homo sapiens [1]) | Activity (Homo sapiens [2]) | Molecule
1 | inactive | Active | CC(C)C[C@H](NC(=O)[C@H](CCCCN)NC(=O)[C@H](CC(C)C)NC(=O)[C@H](CC(C)C)NC(=O)[C@H](CCCCN)NC(=O)[C@H](Cc1ccc(O)cc1)NC(=O)[C@H](Cc1ccccc1)NC(=O)[C@H](CC(C)C)NC(=O)[C@H](CCCNC(=N)N)NC(=O)[C@H](C)NC(=O)[C@H](CC(C)C)NC(=O)[C@H](CCCCN)NC(=O)[C@H](CCCCN)NC(=O)[C@@H](N)CC(C)C)C(=O)O
2 | inactive | Dose-dependent effect | H-LKKLIRLFTKLLKL-OH
3 | inactive | Dose-dependent effect | H-LKKLIRLAYKLLKL-OH
4 | inactive | Dose-dependent effect | H-LKKLLKLLKKLLKL-OH
